# Experimental data as given in US20240376099A1, “COMPOUNDS AND COMPOSITIONS AS INHIBITORS OF ENDOSOMAL TOLL-LIKE RECEPTORS” (Novartis AG, priority 2016, published 2024).
# Molecular target: T1, TLR8 (Homo sapiens, UniProt Q9NR97)
# T1 sequence (Q9NR97 27-1041): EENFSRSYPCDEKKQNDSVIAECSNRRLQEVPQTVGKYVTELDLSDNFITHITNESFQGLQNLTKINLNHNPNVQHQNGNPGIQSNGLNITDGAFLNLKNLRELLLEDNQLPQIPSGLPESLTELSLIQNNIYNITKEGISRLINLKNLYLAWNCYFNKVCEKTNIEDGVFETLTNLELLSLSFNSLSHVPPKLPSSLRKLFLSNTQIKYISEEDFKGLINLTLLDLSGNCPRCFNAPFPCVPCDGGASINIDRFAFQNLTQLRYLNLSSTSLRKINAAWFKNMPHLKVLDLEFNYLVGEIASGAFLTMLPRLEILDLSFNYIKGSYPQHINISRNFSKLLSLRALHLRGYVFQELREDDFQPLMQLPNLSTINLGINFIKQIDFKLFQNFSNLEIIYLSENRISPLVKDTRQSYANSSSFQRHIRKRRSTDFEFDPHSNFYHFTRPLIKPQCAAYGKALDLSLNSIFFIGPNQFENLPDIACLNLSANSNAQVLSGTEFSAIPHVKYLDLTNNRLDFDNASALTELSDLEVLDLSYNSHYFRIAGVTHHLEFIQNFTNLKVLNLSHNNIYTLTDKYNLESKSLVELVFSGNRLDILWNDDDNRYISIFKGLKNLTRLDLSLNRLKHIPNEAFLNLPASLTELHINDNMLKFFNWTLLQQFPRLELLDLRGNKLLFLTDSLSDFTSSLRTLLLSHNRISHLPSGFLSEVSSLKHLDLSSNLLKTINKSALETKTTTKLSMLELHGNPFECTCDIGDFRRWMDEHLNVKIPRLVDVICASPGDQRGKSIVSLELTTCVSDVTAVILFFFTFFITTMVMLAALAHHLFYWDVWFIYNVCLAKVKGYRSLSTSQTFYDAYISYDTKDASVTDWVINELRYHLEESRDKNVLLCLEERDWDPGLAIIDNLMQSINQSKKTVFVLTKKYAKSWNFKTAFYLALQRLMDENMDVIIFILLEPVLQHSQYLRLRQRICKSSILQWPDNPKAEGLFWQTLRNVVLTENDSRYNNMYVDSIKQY
# Experiment: huPBMC TLR8 Antagonist IL-6 TR-FRET Assay
# Type: cell-based
# Parameters: Fresh blood was collected from normal human donors; endogenous in cells; host or cells: human PBMCs from fresh donor blood
# Conditions: human PBMCs stimulated with ssRNA40 1 μg/ml (DOTAP), 14-16 hrs; IL-6 TR-FRET read-out
# How it was run: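 Human PBMCs from fresh donor blood (150,000 cells/well) stimulated 14–16 h at 37 °C with DOTAP-complexed ssRNA40 (final 1 μg/ml for TLR8, 10 μg/mL for TLR7) or ODN2216 (final 0.3 μM, TLR9), 0.25% DMSO, ten-point 1/3 compound dilutions. Supernatant IL-6 read by HTRF (TLR8); IFNα by IFNα2b AlphaLISA (TLR7/TLR9).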
row,Compound,IC50
1,"Cc1nc(N2CCc3c(c(C)nn3CC34CCC(N5CCOCC5)(CC3)CC4)C2)c2cn[nH]c2n1 [compound 21, 4-(4-((3-methyl-5-(6-methyl-1H-pyrazolo[3,4-d]pyrimidin-4-yl)-4,5,6,7-tetrahydro-1H-pyrazolo[4,3-c]pyridin-1-yl)methyl)bicyclo[2.2.2]octan-1-yl)morpholine]",36 nM
2,"Cc1nc(N2CCc3c(c(C)nn3CC34CCC(NCC5COC5)(CC3)CC4)C2)c2c(n1)c(C)nn2C [compound 23, 4-((3-methyl-5-(1,3,5-trimethyl-1H-pyrazolo[4,3-c]pyrimidin-7-yl)-4,5,6,7-tetrahydro-1H-pyrazolo[4,3-c]pyridin-1-yl)methyl)-N-(oxetan-3-ylmethyl)bicyclo[2.2.2]octan-1-amine]",373 nM
3,"Cc1nc(N2CCc3c(c(C)nn3CC34CCC(NC(=O)CCN(C)C)(CC3)CC4)C2)c2c(n1)c(C)nn2C [compound 24, 3-(dimethyalmino)-N-(4-((3-methyl-5-(1,3,5-trimethyl-1H-pyrazolo[4,3-d]pyrimidin-7-yl)-4,5,6,7-tetrahydro-1H-pyrazolo[4,3-c]pyridin-1-yl)methyl)bicyclo[2.2.2]octan-1-yl)propanamide]",10 nM
4,"Cc1nc(N2CCc3c(c(C)nn3CC34CCC(N5CCCCC5)(CC3)CC4)C2)c2cn[nH]c2n1 [compound 29, 6-methyl-4-(3-methyl-1-((4-(piperidin-1-yl)bicyclo[2.2.2]octan-1-yl)methyl)-6,7-dihydro-1H-pyrazolo[4,3-c]pyridin-5(4H)-yl)-1H-pyrazolo[3,4-d]pyrimidine]",16 nM
5,"Cc1nc(N2CCc3c(c(C)nn3CC34CCC(N5CCCC5)(CC3)CC4)C2)c2cn[nH]c2n1 [compound 30, 6-methyl-4-(3-methyl-1-((4-(pyrrolidin-1-yl)bicyclo[2.2.2]octan-1-yl)methyl)-6,7-dihydro-1H-pyrazolo[4,3-c]pyridin-5(4H)-yl)-1H-pyrazolo[3,4-d]pyrimidine]",324 nM
6,"Cc1nc(N2CCc3c(c(C)nn3CC34CCC(NC(=O)[C@@H]5COCCN5)(CC3)CC4)C2)c2c(n1)c(C)nn2C [compound 33, (S)-N-(4-((3-methyl-5-(1,3,5-trimethyl-1H-pyrazolo[4,3-d]pyrimidin-7-yl)-4,5,6,7-tetrahydro-1H-pyrazolo[4,3-c]pyridin-1-yl)methyl)bicyclo[2.2.2]octan-1-yl)morpholine-3-carboxamide]",72 nM
7,"Cc1nc(N2CCc3c(c(C)nn3CC34CCC(NC(=O)[C@H]5CNCCO5)(CC3)CC4)C2)c2c(n1)c(C)nn2C [compound 36, (R)-N-(4-((3-methyl-5-(1,3,5-trimethyl-1H-pyrazolo[4,3-d]pyrimidin-7-yl)-4,5,6,7-tetrahydro-1H-pyrazolo[4,3-c]pyridin-1-yl)methyl)bicyclo[2.2.2]octan-1-yl)morpholine-2-carboxamide]",80 nM
8,"Cc1nc(N2CCc3c(c(C)nn3CC34CCC(N5CCOCC5)(CC3)CC4)C2)c2c(C)noc2n1 [compound 37, 3,6-dimethyl-4-(3-methyl-1-((4-morpholinobicyclo[2.2.2]octan-1-yl)methyl)-6,7-dihydro-1H-pyrazolo[4,3-c]pyridin-5(4H)-yl)isoxazolo[5,4-d]pyrimidine]",79 nM
9,"Cc1nc(N2CCc3c(c(C)nn3CC34CCC(N5CCCCC5)(CC3)CC4)C2)c2cnn(C)c2n1 [compound 39, 1,6-dimethyl-4-(3-methyl-1-((4-(piperidin-1-yl)bicyclo[2.2.2]octan-1-yl)methyl)-6,7-dihydro-1H-pyrazolo[4,3-c]pyridin-5(4H)-yl)-1H-pyrazolo[3,4-c]pyrimidine]",119 nM
10,"Cc1c2c(nn1CC13CCC(N)(CC1)CC3)CCN(c1ccnc3[nH]ncc13)C2 [compound 42, 4-((3-methyl-5-(1H-pyrazolo[3,4-b]pyridin-4-yl)-4,5,6,7-tetrahydro-2H-pyrazolo[4,3-c]pyridin-2-yl)methyl)bicyclo[2.2.2]octan-1-amine]",> 10000 nM

# More lines, in order of falling IC50, values ahead:
row,IC50,Compound
1,4590 nM,"Cc1nn(CC23CCC(N)(CC2)CC3)c2c1CN(c1ccnc3[nH]ncc13)CC2 [compound 41, 4-((3-methyl-5-(1H-pyrazolo[3,4-b]pyridin-4-yl)-4,5,6,7-tetrahydro-1H-pyrazolo[4,3-c]pyridin-1-yl)methyl)bicyclo[2.2.2]octan-1-amine]"
2,861 nM,"Cc1cc(N2CCc3c(c(C)nn3CC34CCC(N)(CC3)C4)C2)c2cnn(C)c2n1 [compound 44, 4-((5-(1,6-dimethyl-1H-pyrazolo[3,4-b]pyridin-4-yl)-3-methyl-4,5,6,7-tetrahydro-1H-pyrazolo[4,3-c]pyridin-1-yl)methyl)bicyclo[2.2.1]heptan-1-amine]"
3,641 nM,"Cc1nc(N2CCc3c(c(C)nn3CC34CCC(N(C5CCC5)C5CCC5)(CC3)CC4)C2)c2c(n1)c(C)nn2C [compound 28, N,N-dicyclobutyl-4-((3-methyl-5-(1,3,5-trimethyl-1H-pyrazolo[4,3-d]pyrimidin-7-yl)-4,5,6,7-tetrahydro-1H-pyrazolo[4,3-c]pyridin-1-yl)methyl)bicyclo[2.2.2]octan-1-amine]"
4,314 nM,"[2H]C([2H])([2H])N(C([2H])([2H])[2H])C12CCC(Cn3nc(C)c4c3CCN(c3nc(C)nc5c(C)nn(C)c35)C4)(CC1)CC2 [compound 40, 4-((3-methyl-5-(1,3,5-trimethyl-1H-pyrazolo[4,3-d]pyrimidin-7-yl)-4,5,6,7-tetrahydro-1H-pyrazolo[4,3-c]pyridin-1-yl)methyl)-N,N-bis(trideuteromethyl)bicyclo[2.2.2]octan-1-amine]"
5,31 nM,"CCNCC(=O)NC12CCC(Cn3nc(C)c4c3CCN(c3nc(C)nc5[nH]ncc35)C4)(CC1)CC2 [compound 20, 2-(ethylamino)-N-(4-((3-methyl-5-(6-methyl-1H-pyrazolo[3,4-d]pyrimidin-4-yl)-4,5,6,7-tetrahydro-1H-pyrazolo[4,3-c]pyridin-1-yl)methyl)bicyclo[2.2.2]octan-1-yl)acetamide]"
6,31 nM,"Cc1nc(N2CCc3c(c(C)nn3CC34CCC(N5CCCCC5)(CC3)CC4)C2)c2c(n1)c(C)nn2C [compound 38, 1,3,5-trimethyl-7-(3-methyl-1-((4-(piperidin-1-yl)bicyclo[2.2.2]octan-1-yl)methyl)-6,7-dihydro-1H-pyrazolo[4,3-c]pyridin-5(4H)-yl)-1H-pyrazolo[4,3-d]pyrimidine]"
7,29 nM,"Cc1nc(N2CCc3c(c(C)nn3CC34CCC(NC(=O)[C@@H]5CNCCO5)(CC3)CC4)C2)c2c(n1)c(C)nn2C [compound 34, (S)-N-(4-((3-methyl-5-(1,3,5-trimethyl-1H-pyrazolo[4,3-d]pyrimidin-7-yl)-4,5,6,7-tetrahydro-1H-pyrazolo[4,3-c]pyridin-1-yl)methyl)bicyclo[2.2.2]octan-1-yl)morpholine-2-carboxamide]"
8,27 nM,"Cc1nc(N2CCc3c(c(C)nn3CC34CCC(NCC5(CO)COC5)(CC3)CC4)C2)c2c(n1)c(C)nn2C [compound 31, (3-(((4-((3-methyl-5-(1,3,5-trimethyl-1H-pyrazolo[4,3-d]pyrimidin-7-yl)-4,5,6,7-tetrahydro-1H-pyrazolo[4,3-c]pyridin-1-yl)methyl)bicyclo[2.2.2]octan-1-yl)amino)methyl)oxetan-3-yl)methanol]"
9,17 nM,"Cc1nc(N2CCc3c(c(C)nn3CC34CCC(N5CCOCC5)(CC3)CC4)C2)c2c(n1)c(C)nn2C [compound 25, 4-(4-((3-methyl-5-(1,3,5-trimethyl-1H-pyrazolo[4,3-d]pyrimidin-7-yl)-4,5,6,7-tetrahydro-1H-pyrazolo[4,3-c]pyridin-1-yl)methyl)bicyclo[2.2.2]octan-1-yl)morpholine]"
10,14 nM,"CCNCC(=O)NC12CCC(Cn3nc(C)c4c3CCN(c3nc(C)nc5c(C)nn(C)c35)C4)(CC1)CC2 [compound 22, 2-(ethylamino)-N-(4-((3-methyl-5-(1,3,5-trimethyl-1H-pyrazolo[4,3-c]pyrimidin-7-yl)-4,5,6,7-tetrahydro-1H-pyrazolo[4,3-c]pyridin-1-yl)methyl)bicyclo[2.2.2]octan-1-yl)acetamide]"
11,14 nM,"Cc1nc(N2CCc3c(c(C)nn3CC34CCC(NC5CCC5)(CC3)CC4)C2)c2c(n1)c(C)nn2C [compound 27, N-cyclobutyl-4-((3-methyl-5-(1,3,5-trimethyl-1H-pyrazolo[4,3-d]pyrimidin-7-yl)-4,5,6,7-tetrahydro-1H-pyrazolo[4,3-c]pyridin-1-yl)methyl)bicyclo[2.2.2]octan-1-amine]"
